Assay results from ChEMBL document CHEMBL4610068, “Diterpenoids from the Root Bark of Pinus massoniana and Evaluation of Their Phosphodiesterase Type 4D Inhibitory Activity” (J Nat Prod, 2020).

Biological target: 3',5'-cyclic-AMP phosphodiesterase 4D (Homo sapiens, UniProt Q08499)
Test: Inhibition of human PDE4D catalytic domain (86 to 413 residues) expressed in Escherichia coli BL21 (DE3) cells using [3H]cAMP as substrate measured after 30 mins by scintillation proximity assay

3',5'-cyclic-AMP phosphodiesterase 4D, sequence (Q08499 whole entry, the tested form may be a part): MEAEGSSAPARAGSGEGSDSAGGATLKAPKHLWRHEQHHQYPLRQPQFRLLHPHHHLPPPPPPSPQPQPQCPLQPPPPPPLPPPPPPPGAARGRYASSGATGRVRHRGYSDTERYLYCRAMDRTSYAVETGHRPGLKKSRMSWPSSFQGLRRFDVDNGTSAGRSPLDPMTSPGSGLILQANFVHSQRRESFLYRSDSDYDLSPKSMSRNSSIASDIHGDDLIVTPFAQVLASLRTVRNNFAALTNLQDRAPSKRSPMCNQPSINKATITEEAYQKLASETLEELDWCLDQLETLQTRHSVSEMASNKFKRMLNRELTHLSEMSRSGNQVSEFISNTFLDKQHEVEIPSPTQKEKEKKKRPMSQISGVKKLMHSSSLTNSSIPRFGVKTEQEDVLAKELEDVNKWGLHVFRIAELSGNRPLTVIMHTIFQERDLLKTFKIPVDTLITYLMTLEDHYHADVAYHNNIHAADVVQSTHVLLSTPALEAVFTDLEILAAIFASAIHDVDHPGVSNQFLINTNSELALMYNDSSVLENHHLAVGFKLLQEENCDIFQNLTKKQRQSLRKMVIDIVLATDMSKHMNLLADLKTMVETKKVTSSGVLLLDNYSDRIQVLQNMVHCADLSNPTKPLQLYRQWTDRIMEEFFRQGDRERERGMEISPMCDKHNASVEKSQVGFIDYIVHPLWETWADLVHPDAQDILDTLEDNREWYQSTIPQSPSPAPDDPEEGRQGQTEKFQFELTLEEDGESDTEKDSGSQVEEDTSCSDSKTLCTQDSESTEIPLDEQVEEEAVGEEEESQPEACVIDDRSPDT

| Compound | IC50 |
| --- | --- |
| C=C(C)c1ccc2c(c1)CC[C@H]1[C@](C)(C(=O)O)CCC[C@]21C | 3.3 µM |
| CC(C)C1=CC[C@H]2C(=CC[C@@H]3[C@]2(C)CCC[C@@]3(C)C(=O)O)C1=O | 2.8 µM |
